Patent US11840686B2, “Modulation of prekallikrein (PKK) expression” (Ionis Pharmaceuticals, Inc., priority 2013, dated 2023)
Strand notation (5' to 3'): a small letter for the sugar, then the base; units joined by * are phosphorothioate-linked, units joined directly phosphodiester-linked; [ ] holds rarer units or linkages, { } end groups; capitals alone tell only the bases. e = 2'-O-(2-methoxyethyl) (MOE); [5mC] = 5-methylcytosine; d = 2'-deoxy (DNA)

test system: human PKK mRNA; experiment: Antisense inhibition of human PKK mRNA in HepaRG cells, 5,000 nM (Example 2); format: cell-based; conditions: HepaRG cells, electroporation, 5,000 nM antisense oligonucleotide, approx. 24 hours, primer probe set RTS3454, relative to untreated control cells; Table 12
How it was run: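 HepaRG cells (20,000/well) electroporated with 5,000 nM MOE gapmer (phosphorothioate backbone, 5-methylcytosines) and harvested after ~24 h. PKK mRNA measured by qRT-PCR with primer probe set RTS3454, normalized to RIBOGREEN total RNA; percent inhibition versus untreated cells.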

Substance	% inhibition
546444 (e[5mC]*e[5mC]*eA*eG*eA*dA*dT*d[5mC]*dA*dT*dG*d[5mC]*d[5mC]*dT*dT*eG*eT*eG*eG*eG; antisense) [compound 546444]	61%
546447 (eG*eT*e[5mC]*eA*e[5mC]*d[5mC]*dA*dT*dA*dG*dA*d[5mC]*d[5mC]*d[5mC]*dA*eG*eA*eA*eT*e[5mC]; antisense) [compound 546447]	68%
546450 (eG*eT*eG*eG*e[5mC]*d[5mC]*d[5mC]*dT*d[5mC]*dT*dT*dA*dA*dG*dT*e[5mC]*eA*e[5mC]*e[5mC]*eA; antisense) [compound 546450]	73%
546453 (e[5mC]*eT*e[5mC]*eA*eT*dT*dG*dT*dT*dG*dT*dG*dT*dG*dG*e[5mC]*e[5mC]*e[5mC]*eT*e[5mC]; antisense) [compound 546453]	82%
546459 (eG*eT*eA*eG*e[5mC]*d[5mC]*dA*dT*dA*d[5mC]*dA*dT*d[5mC]*dT*dG*eA*eG*eG*eA*eA; antisense) [compound 546459]	46%
546461 (eA*eT*eG*eT*eT*dT*dA*dT*dT*dG*dT*dA*dG*d[5mC]*d[5mC]*eA*eT*eA*e[5mC]*eA; antisense) [compound 546461]	53%
546492 (e[5mC]*eT*e[5mC]*eG*e[5mC]*d[5mC]*dT*dT*dT*dG*dT*dG*dA*d[5mC]*dT*e[5mC]*eG*eA*eT*eT; antisense) [compound 546492]	61%
546493 (e[5mC]*eA*eT*eA*e[5mC]*dT*d[5mC]*dG*d[5mC]*d[5mC]*dT*dT*dT*dG*dT*eG*eA*e[5mC]*eT*e[5mC]; antisense) [compound 546493]	35%
546494 (eG*e[5mC]*eA*eT*eA*d[5mC]*dT*d[5mC]*dG*d[5mC]*d[5mC]*dT*dT*dT*dG*eT*eG*eA*e[5mC]*eT; antisense) [compound 546494]	67%
546495 (eT*eG*e[5mC]*eA*eT*dA*d[5mC]*dT*d[5mC]*dG*d[5mC]*d[5mC]*dT*dT*dT*eG*eT*eG*eA*e[5mC]; antisense) [compound 546495]	65%
546496 (eA*eT*eG*e[5mC]*eA*dT*dA*d[5mC]*dT*d[5mC]*dG*d[5mC]*d[5mC]*dT*dT*eT*eG*eT*eG*eA; antisense) [compound 546496]	54%
546497 (e[5mC]*eA*eT*eG*e[5mC]*dA*dT*dA*d[5mC]*dT*d[5mC]*dG*d[5mC]*d[5mC]*dT*eT*eT*eG*eT*eG; antisense) [compound 546497]	56%
546498 (e[5mC]*e[5mC]*eA*eT*eG*d[5mC]*dA*dT*dA*d[5mC]*dT*d[5mC]*dG*d[5mC]*d[5mC]*eT*eT*eT*eG*eT; antisense) [compound 546498]	65%
546499 (eT*e[5mC]*e[5mC]*eA*eT*dG*d[5mC]*dA*dT*dA*d[5mC]*dT*d[5mC]*dG*d[5mC]*e[5mC]*eT*eT*eT*eG; antisense) [compound 546499]	20%
546500 (eT*eT*e[5mC]*e[5mC]*eA*dT*dG*d[5mC]*dA*dT*dA*d[5mC]*dT*d[5mC]*dG*e[5mC]*e[5mC]*eT*eT*eT; antisense) [compound 546500]	46%
546501 (eT*eT*eT*e[5mC]*e[5mC]*dA*dT*dG*d[5mC]*dA*dT*dA*d[5mC]*dT*d[5mC]*eG*e[5mC]*e[5mC]*eT*eT; antisense) [compound 546501]	53%
546502 (eG*eA*eT*eT*eT*dT*d[5mC]*d[5mC]*dA*dT*dG*d[5mC]*dA*dT*dA*e[5mC]*eT*e[5mC]*eG*e[5mC]; antisense) [compound 546502]	37%
546503 (eG*eT*eG*eA*eT*dG*d[5mC]*dG*dA*dT*dT*dT*dT*d[5mC]*d[5mC]*eA*eT*eG*e[5mC]*eA; antisense) [compound 546503]	53%
